Source: patent US12187723B2 (BRISTOL-MYERS SQUIBB COMPANY, priority 2019, dated 2025)
pIC50: −log10 of the molar value.

target: T1, human TLR8 (Homo sapiens, UniProt Q9NR97); assay: TLR8 inhibition reporter assay (HEK-Blue SEAP); format: cell-based; conditions: HEK-Blue cells overexpressing human TLR8, R848 15.9 μM, 22 hour incubation
T1 construct: host or cells: HEK-Blue cells
T1 sequence (Q9NR97 27-1041): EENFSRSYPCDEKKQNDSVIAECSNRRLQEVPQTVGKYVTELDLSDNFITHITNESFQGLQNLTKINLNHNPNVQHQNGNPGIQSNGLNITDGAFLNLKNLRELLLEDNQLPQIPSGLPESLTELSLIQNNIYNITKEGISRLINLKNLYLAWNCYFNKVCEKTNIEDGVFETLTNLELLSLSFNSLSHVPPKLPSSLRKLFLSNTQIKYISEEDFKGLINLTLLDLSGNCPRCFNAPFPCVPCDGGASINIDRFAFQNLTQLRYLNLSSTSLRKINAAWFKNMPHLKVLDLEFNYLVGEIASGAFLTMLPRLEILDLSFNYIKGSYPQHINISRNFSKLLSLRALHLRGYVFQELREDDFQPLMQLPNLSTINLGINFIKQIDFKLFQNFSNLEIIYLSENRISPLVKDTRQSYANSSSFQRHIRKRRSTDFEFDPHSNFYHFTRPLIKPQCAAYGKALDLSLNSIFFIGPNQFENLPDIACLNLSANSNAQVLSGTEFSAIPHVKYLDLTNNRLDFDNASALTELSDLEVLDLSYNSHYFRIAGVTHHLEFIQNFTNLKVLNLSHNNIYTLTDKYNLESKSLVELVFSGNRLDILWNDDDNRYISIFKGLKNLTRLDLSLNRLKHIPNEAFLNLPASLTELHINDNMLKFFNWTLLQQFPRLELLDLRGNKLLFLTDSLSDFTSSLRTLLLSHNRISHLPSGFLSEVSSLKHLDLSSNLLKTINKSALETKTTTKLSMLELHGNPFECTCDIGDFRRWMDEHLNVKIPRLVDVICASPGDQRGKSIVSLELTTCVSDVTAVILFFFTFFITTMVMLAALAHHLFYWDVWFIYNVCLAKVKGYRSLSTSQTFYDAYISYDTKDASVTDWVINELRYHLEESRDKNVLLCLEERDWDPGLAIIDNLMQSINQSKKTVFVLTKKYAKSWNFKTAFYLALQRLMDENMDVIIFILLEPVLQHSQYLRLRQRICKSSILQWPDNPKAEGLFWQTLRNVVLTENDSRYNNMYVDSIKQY
Method: TLR7/8/9 Inhibition Reporter Assays
HEK-Blue™-cells (Invivogen) overexpressing human TLR7, TLR8 or TLR9 receptors were used for screening inhibitors of these receptors using an inducible SEAP (secreted embryonic alkaline phosphatase) reporter gene under the control of the IFN-β minimal promoter fused to five NF-κB and AP-1-binding sites. Briefly, cells are seeded into Greiner 384 well plates (15000 cells per well for TLR7, 20,000 for TLR8 and 25,000 for TLR9) and then treated with test compounds in DMSO to yield a final dose response concentration range of 0.05 nM-50 μM. After a 30 minute compound pre-treatment at room temperature, the cells are then stimulated with a TLR7 ligand (gardiquimod at a final concentration of 7.5 μM), TLR8 ligand (R848 at a final concentration of 15.9 μM) or TLR9 ligand (ODN2006 at a final concentration of 5 nM) to activate NF-κB and AP-1 which induce the production of SEAP. After a 22 hour incubation at 37° C., 5% CO2, SEAP levels are determined with the addition of HEK-Blue™ Detection reagent (Invivogen), a cell culture medium that allows for detection of SEAP, according to manufacturer's specifications. The percent inhibition is determined as the % reduction in the HEK-Blue signal present in wells treated with agonist plus DMSO alone compared to wells treated with a known inhibitor.

Going from `Cc1cc(-c2ccc3c(c2)[nH]c(=O)n3C2CCN(C(=O)CN(C)C)CC2)cn2ncnc12` [Example 102, 1-(1-(dimethylglycyl)piperidin-4-yl)-5-(8-methyl-[1,2,4]triazolo[1,5-a]pyridin-6-yl)-1,3-dihydro-2H-benzo[d]imidazol-2-one] to `Cc1cc2c(cc1-c1cc(C)c3ncnn3c1)[nH]c(=O)n2[C@H]1CCCN(C(=O)CN(C)C)C1` [Example 103, (S)-1-(1-(dimethylglycyl)piperidin-3-yl)-6-methyl-5-(8-methyl-[1,2,4]triazolo[1,5-a]pyridin-6-yl)-1,3-dihydro-2H-benzo[d]imidazol-2-one], the pIC50 rises from less than 5.51 to 6.69.

Going from `COc1cc(-c2cc3[nH]c(=O)n([C@H]4CCCN(C5CCC5)C4)c3cc2C(C)C)cn2ncnc12` [Example 122, (S)-1-(1-cyclobutylpiperidin-3-yl)-6-isopropyl-5-(8-methoxy-[1,2,4]triazolo[1,5-a]pyridin-6-yl)-1,3-dihydro-2H-benzo[d]imidazol-2-one] to `COc1cc(-c2cc3[nH]c(=O)n([C@H]4CCCN(C5COC5)C4)c3cc2C(C)C)cn2ncnc12` [Example 123, (S)-6-isopropyl-5-(8-methoxy-[1,2,4]triazolo[1,5-a]pyridin-6-yl)-1-(1-(oxetan-3-yl)piperidin-3-yl)-1,3-dihydro-2H-benzo[d]imidazol-2-one], the pIC50 falls from 8.82 to 8.25 (0.57 log units).

First: COc1cc(-c2cc3[nH]c(=O)n(C4CCN(C(C)C)CC4)c3cc2C(C)C)cn2ncnc12 [Example 163, 6-isopropyl-1-(1-isopropylpiperidin-4-yl)-5-(8-methoxy-[1,2,4]triazolo[1,5-a]pyridin-6-yl)-1,3-dihydro-2H-benzo[d]imidazol-2-one]
Second: COc1cc(-c2cc3[nH]c(=O)n(C4CCN(C)CC4)c3cc2C(C)C)cn2ncnc12 [Example 154, 6-isopropyl-5-(8-methoxy-[1,2,4]triazolo[1,5-a]pyridin-6-yl)-1-(1-methylpiperidin-4-yl)-1,3-dihydro-2H-benzo[d]imidazol-2-one]
The pIC50 of the first is 0.70 log units lower: 8.12 for the first, 8.82 for the second. The second is the more potent here.

`COc1cc(-c2cc3[nH]c(=O)n(C4CCN(CC5CCOC5)CC4)c3cc2C(C)C)cn2ncnc12` (centres unmarked) [Example 160, 6-isopropyl-5-(8-methoxy-[1,2,4]triazolo[1,5-a]pyridin-6-yl)-1-(1-((tetrahydrofuran-3-yl)methyl)piperidin-4-yl)-1,3-dihydro-2H-benzo[d]imidazol-2-one] and `COc1cc(-c2cc3[nH]c(=O)n(C4CCN(C5CCOC5)CC4)c3cc2C(C)C)cn2ncnc12` (centres unmarked) [Example 162, 6-isopropyl-5-(8-methoxy-[1,2,4]triazolo[1,5-a]pyridin-6-yl)-1-(1-(tetrahydrofuran-3-yl)piperidin-4-yl)-1,3-dihydro-2H-benzo[d]imidazol-2-one] are within 0.2 log units of each other in pIC50: 8.25 for the first, 8.18 for the second.

Going from `COc1cc(-c2cc3[nH]c(=O)n([C@@H]4CCCN(C(C)C)C4)c3cc2C(F)(F)F)cn2ncnc12` [Example 111, (R)-1-(1-isopropylpiperidin-3-yl)-5-(8-methoxy-[1,2,4]triazolo[1,5-a]pyridin-6-yl)-6-(trifluoromethyl)-1,3-dihydro-2H-benzo[d]imidazol-2-one] to `COCCN1CCC[C@@H](n2c(=O)[nH]c3cc(-c4cc(OC)c5ncnn5c4)c(C(F)(F)F)cc32)C1` [Example 118, (R)-5-(8-methoxy-[1,2,4]triazolo[1,5-a]pyridin-6-yl)-1-(1-(2-methoxyethyl)piperidin-3-yl)-6-(trifluoromethyl)-1,3-dihydro-2H-benzo[d]imidazol-2-one], the pIC50 falls from 7.90 to 7.64 (0.26 log units).

`Cc1c(-c2cc3[nH]c(=O)n([C@@H]4CCCN(C(C)C)C4)c3cc2C(C)C)cn2ncnc2c1C` [Example 145, (R)-5-(7,8-dimethyl-[1,2,4]triazolo[1,5-a]pyridin-6-yl)-6-isopropyl-1-(1-isopropylpiperidin-3-yl)-1,3-dihydro-2H-benzo[d]imidazol-2-one] and `COc1cc(-c2cc3[nH]c(=O)n([C@@H]4CCCN(C(C)C)C4)c3cc2C(C)C)cn2ncnc12` [Example 137, (R)-6-isopropyl-1-(1-isopropylpiperidin-3-yl)-5-(8-methoxy-[1,2,4]triazolo[1,5-a]pyridin-6-yl)-1,3-dihydro-2H-benzo[d]imidazol-2-one] are within 0.2 log units of each other in pIC50: 8.68 for the first, 8.86 for the second.

First: CCc1cc2c(cc1-c1cc(OC)c3ncnn3c1)[nH]c(=O)n2[C@H]1CC[C@@H](NC2CCOCC2)CC1 [Example 166, 6-ethyl-5-(8-methoxy-[1,2,4]triazolo[1,5-a]pyridin-6-yl)-1-((1s,4s)-4-((tetrahydro-2H-pyran-4-yl)amino)cyclohexyl)-1,3-dihydro-2H-benzo[d]imidazol-2-one]
Second: COc1cc(-c2cc3[nH]c(=O)n([C@H]4CCCN(CC5CCOCC5)C4)c3cc2C(C)C)cn2ncnc12 [Example 125, (S)-6-isopropyl-5-(8-methoxy-[1,2,4]triazolo[1,5-a]pyridin-6-yl)-1-(1-((tetrahydro-2H-pyran-4-yl)methyl)piperidin-3-yl)-1,3-dihydro-2H-benzo[d]imidazol-2-one]
The pIC50 of the first is 0.64 log units higher: 9.27 for the first, 8.63 for the second. The first is the more potent here.

First: COc1cc(-c2cc3[nH]c(=O)n([C@H]4CCCN(CC5CC5)C4)c3cc2C(C)C)cn2ncnc12 (single isomer, unassigned) [Example 128]
Second: CCN1CCC[C@@H](n2c(=O)[nH]c3cc(-c4cc(OC)c5ncnn5c4)c(C(C)C)cc32)C1 (single isomer, unassigned) [Example 144]
The pIC50 of the first is 0.28 log units higher: 8.58 for the first, 8.30 for the second.

Going from `COc1cc(-c2cc3[nH]c(=O)n([C@@H]4CCCN(C)C4)c3cc2C(C)C)cn2ncnc12` [Example 136, (R)-6-isopropyl-5-(8-methoxy-[1,2,4]triazolo[1,5-a]pyridin-6-yl)-1-(1-methylpiperidin-3-yl)-1,3-dihydro-2H-benzo[d]imidazol-2-one] to `COc1cc(-c2cc3[nH]c(=O)n([C@H]4CCCN(C(C)C)C4)c3cc2C(C)C)cn2ncnc12` [Example 120, (S)-6-isopropyl-1-(1-isopropylpiperidin-3-yl)-5-(8-methoxy-[1,2,4]triazolo[1,5-a]pyridin-6-yl)-1,3-dihydro-2H-benzo[d]imidazol-2-one], the pIC50 rises from 8.70 to 9.10 (0.40 log units).

Compared with `COCCN1CCC[C@@H](n2c(=O)[nH]c3cc(-c4cc(OC)c5ncnn5c4)c(C)cc32)C1` [Example 98, (R)-5-(8-methoxy-[1,2,4]triazolo[1,5-a]pyridin-6-yl)-1-(1-(2-methoxyethyl)piperidin-3-yl)-6-methyl-1,3-dihydro-2H-benzo[d]imidazol-2-one], `COc1cc(-c2cc3[nH]c(=O)n([C@H]4CCCN(CC(C)C)C4)c3cc2C(C)C)cn2ncnc12` [Example 129, (S)-1-(1-isobutylpiperidin-3-yl)-6-isopropyl-5-(8-methoxy-[1,2,4]triazolo[1,5-a]pyridin-6-yl)-1,3-dihydro-2H-benzo[d]imidazol-2-one] is 1.18 log units higher in pIC50: 7.22 for the first, 8.40 for the second. The second is the more potent here.

First: CCN1CCC(n2c(=O)[nH]c3cc(-c4cc(C)c5ncnn5c4)cc(C)c32)CC1 [Example 108, 1-(1-ethylpiperidin-4-yl)-7-methyl-5-(8-methyl-[1,2,4]triazolo[1,5-a]pyridin-6-yl)-1,3-dihydro-2H-benzo[d]imidazol-2-one]
Second: Cc1cc(-c2cc(C)c3ncnn3c2)cc2[nH]c(=O)n(C3CCN(C)CC3)c12 [Example 106, 7-methyl-5-(8-methyl-[1,2,4]triazolo[1,5-a]pyridin-6-yl)-1-(1-methylpiperidin-4-yl)-1,3-dihydro-2H-benzo[d]imidazol-2-one]
The pIC50 of the first is 0.26 log units higher: 7.08 for the first, 6.82 for the second.

`Cc1cc2c(cc1-c1cc(C)c3ncnn3c1)[nH]c(=O)n2[C@@H]1CCCN(CC(=O)N(C)C)C1` [Example 95, (R)—N,N-dimethyl-2-(3-(6-methyl-5-(8-methyl-[1,2,4]triazolo[1,5-a]pyridin-6-yl)-2-oxo-2,3-dihydro-1H-benzo[d]imidazol-1-yl)piperidin-1-yl)acetamide] was tested, and the pIC50 was 7.08.
